Calls of active or inactive are those of the source. Where only a bound is given, the exact number is not on record here.

In assay [1] the target is Peroxisome proliferator-activated receptor gamma/Nuclear receptor coactivator 1 (Homo sapiens, UniProt P37231). The class given is functional.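 Further: agonist potency as compounds enhance coactivator SRC-1 recruitment to PPARgamma.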
Assay [2] addresses Peroxisome proliferator-activated receptor gamma/Nuclear receptor coactivator 2 (Homo sapiens, UniProt P37231). Format: functional.
For another assay, the system named is Vero. Nature of the assay: host cell cytotoxicity of antiviral hits, dose response, cytotoxicity control for West Nile virus antiviral project, secondary assay (AID 1650). Format: functional. As to conditions: Chlorocebus sabaeus.
The target in assay [3] is Peroxisome proliferator-activated receptor gamma/Nuclear receptor coactivator 3 (Homo sapiens, UniProt P37231). The class given is functional.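 Further: agonist potency for raising coactivator recruitment to the receptor.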
Assay [4] concerns the target T1, Acyl-homoserine lactone acylase PvdQ (Pseudomonas aeruginosa (strain LESB58), UniProt Q9I194).
T1 sequence (Q9I194 whole entry): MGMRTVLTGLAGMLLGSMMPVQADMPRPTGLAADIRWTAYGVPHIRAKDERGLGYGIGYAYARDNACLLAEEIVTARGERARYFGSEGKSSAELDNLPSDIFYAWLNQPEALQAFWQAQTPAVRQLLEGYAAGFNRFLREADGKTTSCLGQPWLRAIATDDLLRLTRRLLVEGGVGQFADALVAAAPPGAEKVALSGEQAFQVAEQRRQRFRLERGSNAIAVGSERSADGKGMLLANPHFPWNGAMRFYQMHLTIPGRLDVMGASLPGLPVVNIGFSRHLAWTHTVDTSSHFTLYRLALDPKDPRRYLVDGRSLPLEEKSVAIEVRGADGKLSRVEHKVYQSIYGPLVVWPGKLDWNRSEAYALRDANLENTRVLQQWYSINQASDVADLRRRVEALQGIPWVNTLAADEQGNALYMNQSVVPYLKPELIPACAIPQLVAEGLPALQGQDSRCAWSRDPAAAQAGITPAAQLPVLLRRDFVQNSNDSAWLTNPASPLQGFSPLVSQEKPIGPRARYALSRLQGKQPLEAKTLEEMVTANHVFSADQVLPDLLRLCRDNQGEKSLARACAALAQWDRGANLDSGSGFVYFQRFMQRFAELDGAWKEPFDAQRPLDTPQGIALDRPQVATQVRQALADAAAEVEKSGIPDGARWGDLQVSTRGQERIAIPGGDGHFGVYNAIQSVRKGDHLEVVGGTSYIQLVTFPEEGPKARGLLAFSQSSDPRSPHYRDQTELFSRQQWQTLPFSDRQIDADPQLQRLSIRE
Nature of the assay: P. aeruginosa PvdQ acylase inhibitors, dose response, biochemical, fluorescence, plate reader and imaging, cherry-picks (AID 493231).

The target of assay [5] is T2, Rac GTPase-activating protein 1 (Homo sapiens, UniProt Q9H0H5).
T2 sequence (Q9H0H5 whole entry): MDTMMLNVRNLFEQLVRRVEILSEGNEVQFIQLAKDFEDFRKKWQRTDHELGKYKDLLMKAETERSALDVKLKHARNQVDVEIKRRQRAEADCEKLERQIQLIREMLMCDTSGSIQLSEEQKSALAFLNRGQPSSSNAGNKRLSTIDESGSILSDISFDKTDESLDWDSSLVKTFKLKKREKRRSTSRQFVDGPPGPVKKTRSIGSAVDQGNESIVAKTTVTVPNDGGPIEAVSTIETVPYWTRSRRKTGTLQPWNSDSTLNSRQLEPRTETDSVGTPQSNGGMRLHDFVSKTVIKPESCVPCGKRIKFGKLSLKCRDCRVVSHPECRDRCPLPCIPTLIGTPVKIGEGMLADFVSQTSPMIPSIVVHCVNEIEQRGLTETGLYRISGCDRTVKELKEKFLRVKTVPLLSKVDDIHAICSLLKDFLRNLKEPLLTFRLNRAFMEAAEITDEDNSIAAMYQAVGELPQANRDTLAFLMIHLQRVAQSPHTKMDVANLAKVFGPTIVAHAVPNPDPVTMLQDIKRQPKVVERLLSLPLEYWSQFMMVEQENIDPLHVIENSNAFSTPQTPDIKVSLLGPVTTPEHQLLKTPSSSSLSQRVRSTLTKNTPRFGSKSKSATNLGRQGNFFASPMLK
Put plainly: MgcRacGAP GTPase-activating activity inhibitors, confirmation, biochemical, ADP Hunter fluorescence, primary and confirmatory (AID 624330). The class given is functional.

Assay [6] deals with Melanin-concentrating hormone receptor 1 (Homo sapiens, UniProt Q99705). Nature of the assay: Late-stage fluorescence-based counterscreen for antagonists of the G-protein coupled receptor 7 (GPR7): cell-based dose response assay to identify antagonists of the melanin-concentrating hormone receptor 1 (MCHR1). [Related pubchem assays (depositor defined):AID1861, AID1880, AID1952, AID2148, AID2251, AID2257, AID485339]. The class given is functional.

Assay [7] has as its target T3, Voltage-gated N-type calcium channel alpha-1B subunit/Amyloid beta A4 precursor protein-binding family A member 1 (Homo sapiens, UniProt Q00975+Q02410). Nature of the assay: disruptors of Mint-PDZ/N-type channel peptide interaction – biochemical, HTRF, set 2, SAR follow-up (AID 434980). Format: functional. A general note: In TR-FRET formats the signal depends on donor and acceptor labels being close together.

Assay [8] has as its target T3, Voltage-gated N-type calcium channel alpha-1B subunit/Amyloid beta A4 precursor protein-binding family A member 1. Nature of the assay: disruptors of Mint-PDZ/N-type channel peptide interaction – biochemical, HTRF, SAR follow-up (AID 2489). Format: functional.

Chain of Peroxisome proliferator-activated receptor gamma/Nuclear receptor coactivator 2 (P37231 whole entry): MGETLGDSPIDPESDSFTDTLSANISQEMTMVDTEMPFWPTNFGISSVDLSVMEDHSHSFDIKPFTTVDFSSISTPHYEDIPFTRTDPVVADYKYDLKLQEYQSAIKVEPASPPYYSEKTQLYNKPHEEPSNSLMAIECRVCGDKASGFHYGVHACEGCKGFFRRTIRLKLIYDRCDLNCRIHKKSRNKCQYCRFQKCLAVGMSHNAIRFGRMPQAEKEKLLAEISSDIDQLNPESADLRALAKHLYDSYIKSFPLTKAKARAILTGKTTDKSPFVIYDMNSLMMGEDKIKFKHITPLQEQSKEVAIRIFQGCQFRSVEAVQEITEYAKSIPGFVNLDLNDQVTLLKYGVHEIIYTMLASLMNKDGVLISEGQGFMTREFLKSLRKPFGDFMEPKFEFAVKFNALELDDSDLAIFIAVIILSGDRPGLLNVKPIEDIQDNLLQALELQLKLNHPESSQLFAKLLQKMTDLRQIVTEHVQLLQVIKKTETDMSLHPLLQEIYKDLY
Chain of Peroxisome proliferator-activated receptor gamma/Nuclear receptor coactivator 2 (Q15596 whole entry, further chain): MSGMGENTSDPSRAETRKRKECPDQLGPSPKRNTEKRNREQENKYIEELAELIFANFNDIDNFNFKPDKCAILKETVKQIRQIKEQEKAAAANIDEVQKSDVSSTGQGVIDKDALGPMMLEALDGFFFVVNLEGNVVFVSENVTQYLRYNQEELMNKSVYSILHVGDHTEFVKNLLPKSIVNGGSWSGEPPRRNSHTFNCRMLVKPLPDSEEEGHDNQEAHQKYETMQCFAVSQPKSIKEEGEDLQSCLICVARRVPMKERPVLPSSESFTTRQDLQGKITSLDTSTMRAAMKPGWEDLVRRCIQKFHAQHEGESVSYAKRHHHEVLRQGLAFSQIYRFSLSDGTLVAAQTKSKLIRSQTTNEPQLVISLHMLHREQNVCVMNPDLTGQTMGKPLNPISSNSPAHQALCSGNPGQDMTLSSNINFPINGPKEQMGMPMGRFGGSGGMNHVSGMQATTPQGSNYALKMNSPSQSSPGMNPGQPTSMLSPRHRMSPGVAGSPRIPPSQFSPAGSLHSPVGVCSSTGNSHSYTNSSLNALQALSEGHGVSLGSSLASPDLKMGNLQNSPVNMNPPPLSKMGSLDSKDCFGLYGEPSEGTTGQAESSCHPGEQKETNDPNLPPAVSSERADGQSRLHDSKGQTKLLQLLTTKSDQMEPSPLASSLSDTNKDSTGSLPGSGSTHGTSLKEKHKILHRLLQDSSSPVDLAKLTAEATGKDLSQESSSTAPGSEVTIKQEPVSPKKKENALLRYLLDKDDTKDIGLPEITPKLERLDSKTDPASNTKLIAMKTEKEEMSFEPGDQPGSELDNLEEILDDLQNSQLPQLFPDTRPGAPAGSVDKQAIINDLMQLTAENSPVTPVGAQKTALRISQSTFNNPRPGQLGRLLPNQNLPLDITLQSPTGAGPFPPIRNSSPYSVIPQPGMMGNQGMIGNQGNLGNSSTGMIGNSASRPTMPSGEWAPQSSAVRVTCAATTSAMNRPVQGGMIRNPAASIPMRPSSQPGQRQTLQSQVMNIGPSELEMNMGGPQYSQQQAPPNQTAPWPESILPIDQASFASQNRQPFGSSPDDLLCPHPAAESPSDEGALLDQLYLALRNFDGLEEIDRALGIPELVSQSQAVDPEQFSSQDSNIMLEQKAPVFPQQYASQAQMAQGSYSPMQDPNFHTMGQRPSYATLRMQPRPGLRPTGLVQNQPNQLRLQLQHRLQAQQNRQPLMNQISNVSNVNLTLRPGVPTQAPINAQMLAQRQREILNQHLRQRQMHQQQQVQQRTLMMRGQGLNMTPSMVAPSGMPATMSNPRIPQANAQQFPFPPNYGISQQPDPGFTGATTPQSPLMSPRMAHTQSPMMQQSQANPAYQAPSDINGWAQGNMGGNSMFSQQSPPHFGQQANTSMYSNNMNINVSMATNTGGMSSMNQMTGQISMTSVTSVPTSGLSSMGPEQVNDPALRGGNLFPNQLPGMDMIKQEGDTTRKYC
Chain of Peroxisome proliferator-activated receptor gamma/Nuclear receptor coactivator 3 (P37231 whole entry): as the sequence (P37231 whole entry) above
Chain of Peroxisome proliferator-activated receptor gamma/Nuclear receptor coactivator 3 (Q9Y6Q9 whole entry, further chain): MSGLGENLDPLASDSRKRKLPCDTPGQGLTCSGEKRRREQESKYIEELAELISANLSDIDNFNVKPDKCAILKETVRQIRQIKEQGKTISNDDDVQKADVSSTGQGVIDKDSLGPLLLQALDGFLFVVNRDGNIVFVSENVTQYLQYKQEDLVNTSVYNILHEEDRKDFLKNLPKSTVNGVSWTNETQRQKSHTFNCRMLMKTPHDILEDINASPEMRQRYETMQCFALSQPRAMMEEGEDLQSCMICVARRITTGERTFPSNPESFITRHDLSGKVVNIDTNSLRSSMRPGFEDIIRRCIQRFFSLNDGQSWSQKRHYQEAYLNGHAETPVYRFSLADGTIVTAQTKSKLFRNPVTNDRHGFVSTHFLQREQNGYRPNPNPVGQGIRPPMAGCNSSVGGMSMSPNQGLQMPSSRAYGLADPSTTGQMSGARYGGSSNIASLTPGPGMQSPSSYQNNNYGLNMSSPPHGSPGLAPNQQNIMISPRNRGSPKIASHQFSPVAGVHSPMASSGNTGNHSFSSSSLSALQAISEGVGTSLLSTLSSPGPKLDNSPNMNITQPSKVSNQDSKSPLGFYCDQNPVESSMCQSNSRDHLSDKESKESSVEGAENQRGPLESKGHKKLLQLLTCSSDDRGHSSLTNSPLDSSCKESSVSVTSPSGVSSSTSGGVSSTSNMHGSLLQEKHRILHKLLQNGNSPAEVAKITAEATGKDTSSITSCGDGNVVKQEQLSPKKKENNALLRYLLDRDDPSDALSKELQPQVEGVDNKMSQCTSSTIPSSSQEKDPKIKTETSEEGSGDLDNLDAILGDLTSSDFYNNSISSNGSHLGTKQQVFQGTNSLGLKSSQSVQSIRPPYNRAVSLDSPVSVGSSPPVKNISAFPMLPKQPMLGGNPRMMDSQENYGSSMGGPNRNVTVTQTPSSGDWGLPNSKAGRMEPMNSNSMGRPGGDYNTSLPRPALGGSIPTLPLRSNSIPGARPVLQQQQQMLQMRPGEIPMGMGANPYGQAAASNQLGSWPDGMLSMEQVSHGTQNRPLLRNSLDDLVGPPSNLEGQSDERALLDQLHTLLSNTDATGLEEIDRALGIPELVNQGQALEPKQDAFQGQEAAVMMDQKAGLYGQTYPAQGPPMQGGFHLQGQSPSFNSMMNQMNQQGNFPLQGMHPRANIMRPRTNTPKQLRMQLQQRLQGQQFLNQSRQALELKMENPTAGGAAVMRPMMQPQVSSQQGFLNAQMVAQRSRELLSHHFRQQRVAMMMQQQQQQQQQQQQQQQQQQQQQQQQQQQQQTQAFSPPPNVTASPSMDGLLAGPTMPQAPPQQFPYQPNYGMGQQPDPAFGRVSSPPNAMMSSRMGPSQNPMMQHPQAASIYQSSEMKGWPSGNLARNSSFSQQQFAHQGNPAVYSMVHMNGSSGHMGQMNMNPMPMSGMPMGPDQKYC
Chain of Melanin-concentrating hormone receptor 1 (Q99705 whole entry): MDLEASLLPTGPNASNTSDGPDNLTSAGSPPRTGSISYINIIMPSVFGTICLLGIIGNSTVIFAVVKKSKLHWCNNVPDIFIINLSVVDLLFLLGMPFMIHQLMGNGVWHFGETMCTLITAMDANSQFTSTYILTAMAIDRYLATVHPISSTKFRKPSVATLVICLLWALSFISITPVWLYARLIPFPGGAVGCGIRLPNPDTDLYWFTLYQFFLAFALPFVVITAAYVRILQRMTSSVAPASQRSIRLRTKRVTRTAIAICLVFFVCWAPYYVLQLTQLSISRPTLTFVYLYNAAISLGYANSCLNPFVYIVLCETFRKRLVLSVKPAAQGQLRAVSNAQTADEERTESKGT

For `COc1ccc(NC(=O)CSc2ccc3c4c(cccc24)C(=O)c2ccccc2-3)cc1`, the EC50 in assay [1], in assay [2] and in assay [3] was > 79.4 µM (not active) in each case. Moreover, the CC50 (in general, the concentration giving 50% cytotoxicity) in the assay with Vero is 71.7 µM (active). `O=C(NC1CCCCC1)c1cc(Cl)ccc1[N+](=O)[O-]`: in [4], the AC50 – broadly, the midpoint of the concentration-response curve, whichever way the signal moves – was 69.3 µM (active). Regarding `Cc1cc(NC(=O)c2ccc([N+](=O)[O-])cc2Cl)no1`, the AC50 in [4] is > 100 µM (inactive). In the case of `O=C1c2ccccc2C(=O)C1c1ccc(O)cc1`, the EC50 in assay [1], in [2] and in assay [3] was > 79.4 µM (not active) throughout. In assay [5], the IC50 (usually the concentration needed to halve the response being measured) is 172 µM (active).

Turning to `COc1ccc(Oc2c(Cl)cnn(-c3cccc(OC)c3)c2=O)cc1`, the IC50 in assay [6] was 3.4 µM (active).

`O=CN(c1ccccc1)c1ccc2ccccc2c1`: in [4], the AC50 is 2.68 µM (active).

On to `COc1ccc(Oc2c(C#N)cnn(-c3ccc(C(C)C)cc3)c2=O)cc1`, for which, in assay [6], the IC50 was 7.5 µM (active). `O=C(c1cc(-c2ccco2)nc2ccccc12)N1CCCC(c2ccccc2)C1` (stereo not given): the IC50 in assay [7] and in assay [8] was > 56.8 µM (inactive) throughout.

The values above are taken from ChEMBL document CHEMBL1201862, “PubChem BioAssay data set” (2004).
